The values that follow come from patent US20240382471A1, “GLUCAGON-LIKE PEPTIDE-1 RECEPTOR MODULATORS AND USES THEREOF” (HEPAGENE THERAPEUTICS (HK) LIMITED, priority 2021, published 2024).

Where only a bound is given, the exact number is not on record here.

Chain of GLP1R (P43220 24-463, species assumed): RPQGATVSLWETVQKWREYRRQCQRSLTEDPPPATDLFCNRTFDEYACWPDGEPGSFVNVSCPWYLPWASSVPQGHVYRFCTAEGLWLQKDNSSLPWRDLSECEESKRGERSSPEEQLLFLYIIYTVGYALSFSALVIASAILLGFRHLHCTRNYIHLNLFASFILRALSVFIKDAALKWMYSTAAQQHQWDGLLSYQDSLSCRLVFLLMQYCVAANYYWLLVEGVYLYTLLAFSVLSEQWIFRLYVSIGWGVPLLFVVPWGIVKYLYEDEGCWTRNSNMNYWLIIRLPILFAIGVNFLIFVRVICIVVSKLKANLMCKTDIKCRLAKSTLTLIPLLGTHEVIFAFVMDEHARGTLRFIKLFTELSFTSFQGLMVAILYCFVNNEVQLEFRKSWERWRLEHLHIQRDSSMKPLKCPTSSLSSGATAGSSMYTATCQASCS

In the test the target is GLP1R (Homo sapiens, UniProt P43220). The test is described as follows: GLP1R cAMP assay (HTRF cAMP detection, agonist activity). It is filed as cell-based. Set-up: host or cells: Flp-In-293. Particulars: Flp-In-293-GLP1R cells, 30 min at 37° C., read-out: EC50 (nM) Assay 1. The procedure:
GLP1R-mediated agonist activity was determined with a cell-based functional assay utilizing an HTRF (Homogeneous Time-Resolved Fluorescene) cAMP detection kit that measures CAMP levels in the cell. Reagents and equipment used in the assay are listed below, followed by the protocol.
• 1) Cell Line: Flp-In-293-GLP1R (constructed by Pharmaron Beijing Co., Ltd) • 2) Complete Medium: DMEM+10% FBS+1×Penicillin-Streptomycin+200 μg/mL HB • 3) Assay Buffer: 1×HBSS+20 mM HEPES+0.1% BSA+500 μM IBMX
• a) Seed Flpin-293-GLP1R cells at 20,000 cells/well into 384 well assay plate (6007680-50, PE) using complete medium. • b) Prepare 4×compound working solution with assay buffer. • c) Add 5 μL 4×compound working solution into cell plate, incubate 30 min at 37° C. • d) Dilute Eu-cAMP tracer (1/50) with lysis buffer and add 10 μl/well to assay plate. • e) Dilute Ulight-anti-cAMP (1/150) with lysis buffer and add 10 μl/well to assay plate. • f) Incubate 1 h at RT. • g) Read the plate at wavelengths of 665 nm and 615 nm on Envision 2105 plate reader.
• 3.1% Activity is calculated as follow:
% Activity=100−(Signalcmpd−SignalAve_PC)/(SignalAve_VC−SignalAve_PC)×100. • 3.2 Calculate EC50 and Plot effect-dose curve of cmpds:
Y=Bottom+(Top−Bottom)/(1+10^((Log EC50−X)*Hill Slope)) • X: log of agonist concentration; Y: % Activity.
In general terms: Changes in cAMP serve as a functional read-out for many G protein-coupled receptors.
With `N#Cc1ccc(COc2cccc(N3C4CCC3CN(Cc3nc5ccc(C(=O)O)cc5n3CC3CCOC3)C4)n2)c(F)c1` (centres unmarked) [Compound 2-33, 2-[(8-{6-[(4-cyano-2-fluorophenyl)methoxy]pyridin-2-yl}-3,8-diazabicyclo[3.2.1]octan-3-yl)methyl]-3-(oxolan-3-ylmethyl)-1,3-benzodiazole-5-carboxylic acid], the concentration giving a half-maximal response (EC50) (commonly the concentration giving half of the maximal effect) was greater than 4 nM.

On to `O=C(O)c1ccc2nc(CN3C4CC3CN(c3cccc(OCc5ccc(Cl)cc5F)n3)C4)n(C[C@@H]3CCO3)c2c1` [Compound 2-3, 2-((−3-(6-((4-chloro-2-fluorobenzyl)oxy)pyridin-2-yl)-3,6-diazabicyclo[3.1.1]heptan-6-yl)methyl)-1-(((S)-oxetan-2-yl)methyl)-1H-benzo[d]imidazole-6-carboxylic acid], for which the EC50 was greater than 4 nM.

Take `O=C(O)c1ccc2nc(CN3CC4CN(c5cccc(OCc6ccc(F)cc6F)n5)CC4C3)n(C[C@@H]3CCO3)c2c1` (stereo partly drawn) [Compound 2-28, 2-[(5-{6-[(2,4-difluorophenyl)methoxy]pyridin-2-yl}-hexahydropyrrolo[3,4-c]pyrrol-2-yl)methyl]-3-[(2S)-oxetan-2-ylmethyl]-1,3-benzodiazole-5-carboxylic acid]: the concentration giving a half-maximal response (EC50) was greater than 4 nM.

For `O=C(O)c1ccc2nc(CN3CC4CCC(C3)N4c3cccc(OCc4ccncc4)n3)n(C[C@@H]3CCO3)c2c1` [Compound 2-41, 3-[(2S)-oxetan-2-ylmethyl]-2-({8-[6-(pyridin-4-ylmethoxy)pyridin-2-yl]-3,8-diazabicyclo[3.2.1]octan-3-yl}methyl)-1,3-benzodiazole-5-carboxylic acid], the EC50 is greater than 4 nM.

Take `O=C(O)c1ccc2nc(CN3CC4CCC(C3)N4c3cccc(OCc4ccc(Cl)cc4F)n3)n(C[C@@H]3CCO3)c2c1` [Compound 2-39, 2-[(8-{6-[(4-chloro-2-fluorophenyl)methoxy]pyridin-2-yl}-3,8-diazabicyclo[3.2.1]octan-3-yl)methyl]-3-[(2S)-oxetan-2-ylmethyl]-1,3-benzodiazole-5-carboxylic acid]: the EC50 was found to be 0.346 nM.

For `O=C(O)c1ccc2nc(CN3C4CCC3CN(c3cccc(OCc5ccncc5)n3)C4)n(C[C@@H]3CCO3)c2c1` [Compound 2-5, 3-[(2S)-oxetan-2-ylmethyl]-2-({3-[6-(pyridin-4-ylmethoxy)pyridin-2-yl]-3,8-diazabicyclo[3.2.1]octan-8-yl}methyl)-1,3-benzodiazole-5-carboxylic acid], the EC50 was greater than 4 nM.

Take `N#Cc1ccc(COc2cccc(N3CC4CCC(C3)N4Cc3nc4ccc(C(=O)O)cc4n3CC3CCOC3)n2)c(F)c1` (centres unmarked) [Compound 2-11, 2-[(3-{6-[(4-cyano-2-fluorophenyl)methoxy]pyridin-2-yl}-3,8-diazabicyclo[3.2.1]octan-8-yl)methyl]-3-(oxolan-3-ylmethyl)-1,3-benzodiazole-5-carboxylic acid]: the EC50 is greater than 4 nM.

Consider `O=C(O)c1ccc2nc(CN3C4CCC3CN(c3cccc(OCc5ccncc5F)n3)C4)n(C[C@@H]3CCO3)c2c1` [Compound 2-13, 2-[(3-{6-[(3-fluoropyridin-4-yl)methoxy]pyridin-2-yl}-3,8-diazabicyclo[3.2.1]octan-8-yl)methyl]-3-[(2S)-oxetan-2-ylmethyl]-1,3-benzodiazole-5-carboxylic acid], for which the EC50 is greater than 4 nM.

For `N#Cc1ccc(COc2cccc(N3CC4CCC(C3)N4Cc3nc4ccc(C(=O)O)cc4n3C[C@@H]3CCO3)n2)c(F)c1` [Compound 2, 2-((−3-(6-((4-cyano-2-fluorobenzyl)oxy)pyridin-2-yl)-3,8-diazabicyclo[3.2.1]octan-8-yl)methyl)-1-(((S)-oxetan-2-yl)methyl)-1H-benzo[d]imidazole-6-carboxylic acid], the EC50 was 1.22 nM.

For the compound `N#Cc1ccc(COc2cccc(C34CCN(Cc5nc6ccc(C(=O)O)cc6n5C[C@@H]5CCO5)CC3C4)c2)c(F)c1` (single isomer, unassigned) [Compound 1-9-A], the EC50 is 1.01 nM.

Consider `N#Cc1ccc(COc2cccc(N3CC4CN(Cc5nc6ccc(C(=O)O)cc6n5C[C@@H]5CCO5)CC4C3)n2)cc1` (stereo partly drawn) [Compound 2-22, 2-((5-(6-((4-cyanobenzyl)oxy)pyridin-2-yl)hexahydropyrrolo[3,4-c]pyrrol-2 (1H)-yl)methyl)-1-(((S)-oxetan-2-yl)methyl)-1H-benzo[d]imidazole-6-carboxylic acid], for which the EC50 turned out to be 2 nM.

For the compound `N#Cc1ccc(COc2ccnc(C34CCN(Cc5nc6ccc(C(=O)O)cc6n5C[C@@H]5CCO5)CC3C4)n2)c(F)c1` (single isomer, unassigned) [Compound 1-11-B], the EC50 was determined as 0.017 nM.

Turning to `N#Cc1ccc(COc2cccc(N3CC4CN(Cc5nc6ccc(C(=O)O)cc6n5Cc5cocn5)CC4C3)n2)c(F)c1` (centres unmarked) [Compound 2-25, 2-[(5-{6-[(4-cyano-2-fluorophenyl)methoxy]pyridin-2-yl}-hexahydropyrrolo[3,4-c]pyrrol-2-yl)methyl]-3-(1,3-oxazol-4-ylmethyl)-1,3-benzodiazole-5-carboxylic acid], the EC50 is 1.7 nM.

As for `O=C(O)c1ccc2nc(CN3C4CCC3CN(c3cccc(OCc5ccc(Cl)cc5F)n3)C4)n(C[C@@H]3CCO3)c2c1` [Compound 2-6, 2-[(3-{6-[(4-chloro-2-fluorophenyl)methoxy]pyridin-2-yl}-3,8-diazabicyclo[3.2.1]octan-8-yl)methyl]-3-[(2S)-oxetan-2-ylmethyl]-1,3-benzodiazole-5-carboxylic acid], the EC50 was determined as 0.643 nM.

For the compound `N#Cc1ccc(COc2cccc(N3C4CCC3CN(Cc3nc5ccc(C(=O)O)cc5n3C[C@@H]3CCO3)C4)n2)cc1` [Compound 2-38, 2-((8-(6-((4-cyanobenzyl)oxy)pyridin-2-yl)-3,8-diazabicyclo[3.2.1]octan-3-yl)methyl)-1-(((S)-oxetan-2-yl)methyl)-1H-benzo[d]imidazole-6-carboxylic acid], the EC50 is 0.458 nM.

For `Cc1ccc(COc2cccc(N3C4CCC3CN(Cc3nc5ccc(C(=O)O)cc5n3C[C@@H]3CCO3)C4)n2)c(F)c1` [Compound 2-37, 2-((−8-(6-((2-fluoro-4-methylbenzyl)oxy)pyridin-2-yl)-3,8-diazabicyclo[3.2.1]octan-3-yl)methyl)-1-(((S)-oxetan-2-yl)methyl)-1H-benzo[d]imidazole-6-carboxylic acid], the EC50 was 0.929 nM.

For the compound `N#Cc1ccc(COc2cccc(N3CC4CN(Cc5nc6ccc(C(=O)O)cc6n5Cc5ncco5)CC4C3)n2)c(F)c1` (centres unmarked) [Compound 2-26, 2-[(5-{6-[(4-cyano-2-fluorophenyl)methoxy]pyridin-2-yl}-hexahydropyrrolo[3,4-c]pyrrol-2-yl)methyl]-3-(1,3-oxazol-2-ylmethyl)-1,3-benzodiazole-5-carboxylic acid], the EC50 was greater than 4 nM.

For `O=C(O)c1ccc2nc(CN3CC4CCC(C3)N4c3cccc(OCc4ccccc4F)n3)n(C[C@@H]3CCO3)c2c1` [Compound 2-36, 2-((−8-(6-((2-fluorobenzyl)oxy)pyridin-2-yl)-3,8-diazabicyclo[3.2.1]octan-3-yl)methyl)-1-(((S)-oxetan-2-yl)methyl)-1H-benzo[d]imidazole-6-carboxylic acid], the half-maximal effective concentration (EC50) is greater than 4 nM.

As to `N#Cc1ccc(COc2ccnc(C34CCN(Cc5nc6ccc(C(=O)O)cc6n5C[C@@H]5CCO5)CC3C4)c2)c(F)c1` (single isomer, unassigned) [Compound 1-2-B], the EC50 is greater than 4 nM.

With `CS(=O)(=O)c1ccc(COc2cccc(N3CC4CCC(C3)N4Cc3nc4ccc(C(=O)O)cc4n3C[C@@H]3CCO3)n2)cc1` [Compound 2-14, 2-((−3-(6-((4-(methylsulfonyl)benzyl)oxy)pyridin-2-yl)-3,8-diazabicyclo[3.2.1]octan-8-yl)methyl)-1-(((S)-oxetan-2-yl)methyl)-1H-benzo[d]imidazole-6-carboxylic acid], the EC50 was greater than 4 nM.

Take `N#Cc1ccc(COc2cccc(N3C4CCC3CN(Cc3nc5ccc(C(=O)O)cc5n3C[C@@H]3CCCO3)C4)n2)c(F)c1` [Compound 2-32, 2-((−8-(6-((4-cyano-2-fluorobenzyl)oxy)pyridin-2-yl)-3,8-diazabicyclo[3.2.1]octan-3-yl)methyl)-1-(((S)-tetrahydrofuran-2-yl)methyl)-1H-benzo[d]imidazole-6-carboxylic acid]: the EC50 worked out at 3.25 nM.

`N#Cc1ccc(COc2ccnc(C34CCN(Cc5nc6ccc(C(=O)O)cc6n5C[C@@H]5CCO5)CC3C4)c2)c(F)c1` (single isomer, unassigned) [Compound 1-2-A]: the EC50 is greater than 4 nM.

`Cc1ccc(COc2cccc(N3CC4CCC(C3)N4Cc3nc4ccc(C(=O)O)cc4n3C[C@@H]3CCO3)n2)c(F)c1` [Compound 2-8, 2-[(3-{6-[(2-fluoro-4-methylphenyl)methoxy]pyridin-2-yl}-3,8-diazabicyclo[3.2.1]octan-8-yl)methyl]-3-[(2S)-oxetan-2-ylmethyl]-1,3-benzodiazole-5-carboxylic acid]: the EC50 was greater than 4 nM.
